The source made the active and inactive calls. The calls are words filed in the database; no cut-off is given here.
Tests used:
[1] = target: Botulinum neurotoxin type A (Clostridium botulinum, UniProt P0DPI0); test: Inhibition of protease activity of recombinant full length Clostridium botulinum Hall BoNT/A light chain using SNAP-25 peptide (187 to 203 residues) as substrate after 5 mins by HPLC analysis; set-up: species or system Clostridium botulinum A str. Hall
[2] = target: Botulinum neurotoxin type A (Clostridium botulinum) (UniProt P0DPI0); test: (§1) Inhibition of Clostridium botulinum Hall BoNT/A light chain-induced paralysis in CD1 mouse phrenic nerve diaphragm assessed as compound concentration required to cause delay in time to 50% loss of twitch tension evoked by nerve stimulation preincubated with BoNT/A light chain for 15 to 20 mins followed by addition to diaphragm; settings: Clostridium botulinum A str. Hall
[3] = target: Botulinum neurotoxin type A (Clostridium botulinum) (UniProt P0DPI0); test: as §1, with “stimulation at 20 uM” for “stimulation”; settings: Clostridium botulinum A str. Hall

Botulinum neurotoxin type A (Clostridium botulinum), sequence (P0DPI0 2-448 limits assumed): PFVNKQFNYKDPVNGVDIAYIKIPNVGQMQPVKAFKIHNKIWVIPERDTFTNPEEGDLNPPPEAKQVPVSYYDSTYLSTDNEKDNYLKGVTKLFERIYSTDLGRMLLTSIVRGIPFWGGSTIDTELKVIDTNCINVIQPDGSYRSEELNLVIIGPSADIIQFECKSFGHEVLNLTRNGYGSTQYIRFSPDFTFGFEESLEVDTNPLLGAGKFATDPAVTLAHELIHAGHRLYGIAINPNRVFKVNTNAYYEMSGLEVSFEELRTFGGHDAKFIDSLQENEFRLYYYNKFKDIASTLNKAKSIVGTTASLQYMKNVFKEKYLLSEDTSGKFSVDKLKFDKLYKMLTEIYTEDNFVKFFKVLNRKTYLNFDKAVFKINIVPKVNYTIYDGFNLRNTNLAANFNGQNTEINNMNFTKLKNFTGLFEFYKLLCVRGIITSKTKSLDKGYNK
Botulinum neurotoxin type A, sequence (P0DPI0 2-448 limits assumed): as above

SMILES | IC50 [1] [µM] | Activity [2] [µM] | inhibition [3]
Oc1c(C(Nc2ccccn2)c2ccccc2F)cc(Cl)c2cccnc12 (stereo not drawn) | 1.4 | 20 | –
Oc1c(C(Nc2cccnc2)c2ccc(F)cc2)cc(Cl)c2cccnc12 (stereo not drawn) | 2.3 | 2 | –
Oc1c(C(Nc2ccccn2)c2ccc(F)cc2F)cc(Cl)c2cccnc12 (stereo not drawn) | 0.7 | 20 | –
Cc1ccc2ccc(C(Nc3cccnc3)c3ccc(F)cc3)c(O)c2n1 (stereo not drawn) | – | 20 | –
Oc1ccc(Cl)c2cccnc12 [CLOXYQUIN] | 1.9 | – | –
Cc1ccc2ccc(C(Nc3ccccn3)c3ccc(F)cc3F)c(O)c2n1 (stereo not drawn) | 2.7 | 20 | –
Cc1ccc2ccc(C(Nc3cccnc3)c3ccc(F)cc3F)c(O)c2n1 (stereo not drawn) | 12.3 | 2 | –
Oc1c(C(Nc2cccnc2)c2ccccc2F)cc(Cl)c2cccnc12 (stereo not drawn) | 0.7 | 2 | –
O=Cc1ccc(F)cc1F | 4.9 | – | –
Nc1ncccn1 | 4.6 | – | –
O=Cc1ccccc1F | 2.8 | – | –
Oc1c(C(Nc2cccnc2)c2ccc(F)cc2)ccc2cccnc12 (stereo not drawn) | 4.6 | 2 | –
Oc1c(C(Nc2ccccn2)c2ccc(F)cc2F)ccc2cccnc12 (stereo not drawn) | 3.6 | 20 | –
Oc1c(C(Nc2ncccn2)c2ccccc2)cc(Cl)c2cccnc12 (stereo not drawn) | 4.5 | 2 | –
Oc1c(C(Nc2ncccn2)c2ccccc2F)cc(Cl)c2cccnc12 (stereo not drawn) | 4 | 2 | –
Oc1c(C(Nc2cccnc2)c2ccc(F)cc2F)ccc2cccnc12 (stereo not drawn) | 4.4 | 20 | –
Cc1ccc2ccc(C(Nc3ccccn3)c3ccccc3)c(O)c2n1 (stereo not drawn) | 0.7 | 2 | –
Nc1cccnc1 | 3.3 | – | –
Oc1c(C(Nc2ncccn2)c2ccc(F)cc2)ccc2cccnc12 (stereo not drawn) | 1.7 | 20 | –
Cc1ccc2ccc(C(Nc3cccnc3)c3ccccc3F)c(O)c2n1 (stereo not drawn) | 0.7 | 20 | –
Cc1ccc2ccc(C(Nc3ncccn3)c3ccc(F)cc3)c(O)c2n1 (stereo not drawn) | 4.2 | 20 | –
Cc1ccc2ccc(C(Nc3ccccn3)c3ccccc3F)c(O)c2n1 (stereo not drawn) | 1.4 | 2 | –
Oc1c(C(Nc2ncccn2)c2ccc(F)cc2F)cc(Cl)c2cccnc12 (stereo not drawn) | 2.2 | – | inactive

SMILES | IC50 [1] [µM] | Activity [2] [µM] | inhibition [3]
Cc1ccc2cccc(O)c2n1 [8-HYDROXY QUINALDINE] | 3.9 | – | –
Nc1ccccn1 [2-AMINOPYRIDINE] | 1.8 | – | –
Oc1c(C(Nc2ncccn2)c2ccccc2F)ccc2cccnc12 (stereo not drawn) | 1.9 | – | inactive
Oc1c(C(Nc2ccccn2)c2ccccc2)cc(Cl)c2cccnc12 (stereo not drawn) | 1.5 | 2 | –
Cc1ccc2ccc(C(Nc3ncccn3)c3ccccc3)c(O)c2n1 (stereo not drawn) | 4.6 | – | inactive
Oc1c(C(Nc2cccnc2)c2ccc(F)cc2F)cc(Cl)c2cccnc12 (stereo not drawn) | 0.6 | 20 | –
Oc1c(C(Nc2ncccn2)c2ccc(F)cc2)cc(Cl)c2cccnc12 (stereo not drawn) | 0.7 | 20 | –
O=Cc1ccccc1 [BENZALDEHYDE] | 2.9 | – | –
Oc1c(C(Nc2ncccn2)c2ccc(F)cc2F)ccc2cccnc12 (stereo not drawn) | 12.7 | – | inactive
Oc1c(C(Nc2cccnc2)c2ccccc2F)ccc2cccnc12 (stereo not drawn) | – | 10 | –
Cc1ccc2ccc(C(Nc3ncccn3)c3ccc(F)cc3F)c(O)c2n1 (stereo not drawn) | 4.3 | – | inactive
Oc1c(C(Nc2ccccn2)c2ccc(F)cc2)cc(Cl)c2cccnc12 (stereo not drawn) | 0.6 | 20 | –
Oc1c(C(Nc2cccnc2)c2ccccc2)ccc2cccnc12 (stereo not drawn) | 6.2 | 20 | –
Oc1c(C(Nc2ccccn2)c2ccccc2F)ccc2cccnc12 (stereo not drawn) | 1.2 | 20 | –
O=Cc1ccc(F)cc1 | 2.3 | – | –
Oc1c(C(Nc2ncccn2)c2ccccc2)ccc2cccnc12 (stereo not drawn) | 2.7 | – | inactive
Oc1cccc2cccnc12 [OXYQUINOLINE] | 3.9 | – | –
Cc1ccc2ccc(C(Nc3ncccn3)c3ccccc3F)c(O)c2n1 (stereo not drawn) | 12 | – | inactive
Cc1ccc2ccc(C(Nc3ccccn3)c3ccc(F)cc3)c(O)c2n1 (stereo not drawn) | 1.6 | 20 | –
Cc1ccc2ccc(C(Nc3cccnc3)c3ccccc3)c(O)c2n1 (stereo not drawn) | – | 20 | –
Oc1c(C(Nc2ccccn2)c2ccccc2)ccc2cccnc12 (stereo not drawn) | – | 10 | –
Oc1c(C(Nc2cccnc2)c2ccccc2)cc(Cl)c2cccnc12 (stereo not drawn) | 3.5 | 2 | –
Oc1c(C(Nc2ccccn2)c2ccc(F)cc2)ccc2cccnc12 (stereo not drawn) | 4.1 | 2 | –

— ChEMBL document CHEMBL4000225, “A matrix-focused structure-activity and binding site flexibility study of quinolinol inhibitors of botulinum neurotoxin serotype A” (Bioorg Med Chem Lett, 2017)
